Results reported in PubChem BioAssay AID463206 (Broad Institute, 2010).
Active and inactive are the calls of the source.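 The calls were made as follows: active = caspase luminescence falls with dose and the half-maximal concentration AC50 from the fitted curve is at or below a set limit; inconclusive = flat fit at 30 to 70% signal loss, or invalid fit; inactive = AC50 above the limit, or signal rises instead.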

tested on: INS-1E cytokine-induced caspase-3/7, Caspase-Glo luminescence, 48 h; assay: suppression of cytokine-driven beta-cell apoptosis – INS-1E rat cells, luminescence, orthogonal assay for beta-cell apoptosis protection project, dose response (AID 463206)

| Compound | AC50 |
| --- | --- |
| O=C(c1ccc(F)c(S(=O)(=O)N2CCOCC2)c1)N1CCN(c2ccc(F)cc2)CC1 | > 26 µM (inactive) |
| Cc1cc2c(NCCc3ccccc3)ncnc2s1 | > 26 µM (inactive) |
| CCCCC1(Cc2ccc([N+](=O)[O-])cc2)C(=O)N(c2ccccc2)N(c2ccccc2)C1=O | > 26 µM (inactive) |
| CCN(Cc1ccccc1)C(c1cccs1)c1nnnn1C1CCCCC1 (centres undefined) | > 26 µM (inactive) |
| CCN1/C(=C/C=C/c2sc3ccccc3[n+]2CC)Sc2ccccc21 | > 26 µM (inactive) |
| CCC(O)C1CCN(C(=O)c2cc(COc3ccc4ncccc4c3)on2)CC1 (centres undefined) | > 26 µM (inactive) |
| CCC(=O)NC(c1ccc(OC)cc1)c1cc(Cl)c2cccnc2c1O (centres undefined) | > 26 µM (inactive) |
| Cn1nc(-c2ccc(Cl)cc2)nc2c(=O)n(C)c(=O)nc1-2 | > 26 µM (inactive) |
| CC(CNC(=O)c1ccc(OC2CCN(Cc3ccccn3)CC2)cc1)Oc1cccnc1 (centres undefined) | > 26 µM (inactive) |
| COC(=O)C1CCCCN1C(=O)c1cc(COc2cccc3cnccc23)on1 (centres undefined) | > 26 µM (inactive) |
| CCN(CC)S(=O)(=O)c1cc(NC(=O)CNc2cccc(S(=O)(=O)N3CCCC3)c2)ccc1C | > 26 µM (inactive) |
| CC(C)NC(=S)N/N=C/c1cc(Br)ccc1O | > 26 µM (inactive) |
| S=C(NCCCN1CCOCC1)N1CCN(c2nc(-c3ccc(Cl)cc3)cs2)CC1 | > 12 µM (inactive) |
| COc1ccc(C2/C=C\CN(C(=O)Nc3ccc(C(F)(F)F)cc3)CC(=O)N2Cc2ccc(F)cc2)cc1 (centres undefined) | > 26 µM (inactive) |
| Cc1ccc(NC(=O)Nc2cccc([N+](=O)[O-])c2)cc1F | > 26 µM (inactive) |
| O=C(C#Cc1ccccc1)c1ccco1 | > 26 µM (inactive) |
| O=C(c1cc(COc2cccc3cnccc23)on1)N1CCCC(CCCO)C1 (centres undefined) | > 26 µM (inactive) |
| Cc1nnsc1C(=O)N/N=C/c1ccc2ccccc2c1O | > 26 µM (inactive) |
| CN(c1ccccc1)c1ccc(/C=C/[N+](=O)[O-])cc1 | > 26 µM (inactive) |
| Clc1ccc(-c2[nH]ncc2N=Nc2ccccc2)cc1 | > 26 µM (inactive) |
| COc1ccc(-c2nn(-c3ccccc3)cc2/C=N/Nc2ccc3ccccc3n2)cc1OC | > 26 µM (inactive) |
| CCCCCCCCCCOC(=O)Cn1c(COc2ccccc2C)[n+](C)c2ccccc21 | > 26 µM (inactive) |
| Cc1nn(S(=O)(=O)c2ccc(Cl)cc2)c(C)c1Sc1ccc([N+](=O)[O-])cc1 | > 26 µM (inactive) |
| Oc1c(Cl)cc(Cl)cc1/C=N/Nc1ncc(Br)cn1 | > 26 µM (inactive) |

| Compound | AC50 |
| --- | --- |
| Cc1oc2c(c1C(=O)N1CCC(C)CC1)C(=O)c1ccccc1C2=O | > 26 µM (inactive) |
| COc1ccc2nc3cc(Cl)ccc3c(Nc3cc(CN4CCCC4)c(O)c(CN4CCCC4)c3)c2n1 | > 26 µM (inactive) |
| O=S1(=O)C=C(Sc2nc3ccccc3s2)c2ccccc21 | > 26 µM (inactive) |
| Cc1ccc(C(=O)NC(=S)/C=C2\N(C)c3ccccc3C2(C)C)cc1 | > 26 µM (inactive) |
| O=[N+]([O-])c1cccc(/C=N/n2cnnc2)c1 | > 26 µM (inactive) |
| NC(=NCCCCCCN=C(N)/N=C(\N)Nc1ccc(Cl)cc1)/N=C(\N)Nc1ccc(Cl)cc1 | > 26 µM (inactive) |
| NC(=S)N/N=C/c1c(O)c(Br)cc2oc3c(c12)CCCC3 | > 26 µM (inactive) |
| Cc1[nH]n(-c2ccccc2)c(=O)c1N=Nc1c(O)cc(S(=O)(=O)N(C)C)c2ccccc12 | > 26 µM (inactive) |
| CCCC12C(=O)C(C)(C(c3ccccc3)=C1c1ccccc1)C1C(=O)N(c3ccc(C)cc3)C(=O)C12 (centres undefined) | > 26 µM (inactive) |
| O=C(c1cccnc1)N(c1cc2sc(=O)oc2c2ccccc12)S(=O)(=O)c1ccccc1 | > 26 µM (inactive) |
| CCS(=O)(=O)c1ncc(Cl)c(C(=O)Nc2ccc(S(=O)(=O)N(C)c3ccccc3)cc2)n1 | > 26 µM (inactive) |
| CC1=NN(c2ccc(C)c(C)c2)C(=O)/C1=C\C=C\c1ccc([N+](=O)[O-])o1 | > 26 µM (inactive) |
| O=C(Nc1nc(NC(=O)c2ccco2)n(-c2ccccc2)n1)c1ccccc1 | > 26 µM (inactive) |
| COc1ccc(NS(=O)(=O)c2ccc(-c3coc(C)n3)cc2)cc1OC | > 26 µM (inactive) |
| CCn1c(Cl)c(C=O)s/c1=N\S(=O)(=O)c1ccccc1 | > 26 µM (inactive) |
| Cn1nccc1C(=O)N/N=C/c1c(O)ccc2ccccc12 | > 26 µM (inactive) |
| Cc1ccccc1NC1=C/C(=N\S(=O)(=O)c2ccc(C(=O)O)cc2)c2ccccc2C1=O | > 26 µM (inactive) |
| CC(=O)c1c(C)[nH]c(C(=O)OCCCCN2C(=O)c3ccccc3C2=O)c1C | > 26 µM (inactive) |
| Cc1cc(C)nc(SCc2ccc(C(=O)N/N=C/c3cccc(O)c3O)cc2)n1 | > 26 µM (inactive) |
| C#CCOCCOCCOCCNc1nc(N2CCN(C(=O)CCCCCCCCCCNC(=O)[C@H](CCCCN)n3cc(C)nn3)CC2)nc(N2CCN(C(=O)CCCCCCCCCCNC(=O)[C@@H]([C@H](C)CC)n3cc(CCCCCN)nn3)CC2)n1 | > 26 µM (inactive) |
| CC(NC(=S)NC1CCCCC1)c1ccc(C(C)(C)C)cc1 (centres undefined) | > 26 µM (inactive) |
| COc1cccc(C(NC(C)=O)c2ccc3cccnc3c2O)c1 (centres undefined) | > 26 µM (inactive) |
| COc1ccc(NS(=O)(=O)c2ccc(N3CCOCC3)c(N)c2)cc1 | > 26 µM (inactive) |
| COc1ccc(-c2sc3ccccc3c2-c2ccc(OCCN3CCCCC3)cc2)cc1 | > 26 µM (inactive) |

| Compound | AC50 |
| --- | --- |
| O=C(Nc1ccc(Cl)cc1)Nc1csc([N+](=O)[O-])c1 | > 26 µM (inactive) |
| O=C(Cc1ccccc1)N/N=C/c1ccc([N+](=O)[O-])s1 | > 26 µM (inactive) |
| NS(=O)(=O)c1ccc(N/N=C2/CCCCC2C2CCCCC2)c([N+](=O)[O-])c1 (centres undefined) | > 12 µM (inactive) |
| CCCCCCCCCCOC(=O)Cn1c(COc2cccc(OC)c2)[n+](C)c2ccccc21 | > 26 µM (inactive) |
| O=C(Nc1cccc(C(F)(F)F)c1)Nc1ccc(N2CCCC2)c(S(=O)(=O)Nc2ccccc2Cl)c1 | > 26 µM (inactive) |
| Cc1ccc2nc(-c3cccc(-c4cccc(Cl)c4)c3)c(NCc3ccccc3)n2c1 | > 26 µM (inactive) |
| Cc1sc2ncnc(NCC(O)c3ccc([N+](=O)[O-])cc3)c2c1C (centres undefined) | > 26 µM (inactive) |
| Cc1ccc(NNC(=O)c2ccno2)cc1Cl | > 26 µM (inactive) |
| CCn1c(NN=O)nc2ccccc21 | > 26 µM (inactive) |
| CCCCCCCCCCCCCCCC[N+](C)(C)CC | > 26 µM (inactive) |
| COc1cc(NC(=O)c2cc3ccccc3cc2O)c(OC)cc1Cl | > 26 µM (inactive) |
| O=C(Nc1ccc(-c2noc(-c3cccs3)n2)cc1)c1cccnc1 | > 26 µM (inactive) |
| O=C(Nc1ccc(Cc2ccncc2)cc1)c1ccc([N+](=O)[O-])o1 | > 26 µM (inactive) |
| Cc1cc(C)cc(OCC(O)CN2CCC(CN3C(=O)c4cccc5cccc(c45)C3=O)CC2)c1 (centres undefined) | > 26 µM (inactive) |
| Oc1ccc(Nc2nc(N3CCCC3)c3ccccc3n2)cc1 | 8.57 µM |
| CCCC[C@@H](CN[C@H](C)CNC)NCC1CCC(C(C)(C)C)CC1 (some centres undefined) | 25.6 µM |
| Cc1[nH]n(-c2ccccc2)c(=O)c1/C=N/Nc1nncc(-c2ccccc2)n1 | > 26 µM (inactive) |
| O=C(Nc1nc(-c2ccccc2)cs1)c1ccccc1NS(=O)(=O)c1ccc(F)cc1 | > 26 µM (inactive) |
| Cc1cc(C(=O)CSc2nc3ccccc3c(=O)n2C)c(C)n1Cc1ccc2c(c1)OCO2 | > 26 µM (inactive) |
| O=C(COc1ccc2ccccc2c1)N1CCN(Cc2c[nH]c3ccccc23)CC1 | > 26 µM (inactive) |
| O=C(CC1C(=O)NCCN1Cc1ccc(-c2ccccc2)cc1)NC1CCC1 (centres undefined) | > 26 µM (inactive) |
| COCCNc1nc2c(c(=O)n(C)c(=O)n2C)n1Cc1cccc(C(F)(F)F)c1 | > 26 µM (inactive) |
| O=C(C(Cl)Cl)N1c2ccccc2OCC1c1ccccc1 (centres undefined) | > 26 µM (inactive) |
| CC(C)OCCCNc1ncnc2c1[nH]c1ccc(F)cc12 | > 26 µM (inactive) |

| Compound | AC50 |
| --- | --- |
| Clc1ccc(C[n+]2c(-c3ccccc3)cc(-c3ccccc3)cc2-c2ccccc2)cc1 | > 12 µM (inactive) |
| c1ccc(-c2nnc(CSc3ccc4c(c3)OCCO4)o2)cc1 | > 26 µM (inactive) |
| O=C1/C(=C\c2cccnc2)CN(Cc2ccccc2)C/C1=C\c1cccnc1 | > 26 µM (inactive) |
| CC(=O)Nc1ccc(S(=O)(=O)N2c3ccccc3NC(=O)CC2C)c(Cl)c1 (centres undefined) | > 26 µM (inactive) |
| O=C(Cc1ccc([N+](=O)[O-])cc1)Nc1cccnc1 | > 26 µM (inactive) |
| c1csc(-c2csc3ncnc(NCCCN4CCOCC4)c23)c1 | > 26 µM (inactive) |
| COc1ccc(C(=O)NC(=S)NNC(=O)c2cnccn2)cc1OC | > 26 µM (inactive) |
| Cc1c(Cl)c([N+](=O)[O-])nn1Cc1ccc(C(=O)N/N=C\c2cc(Cl)ccc2O)o1 | > 26 µM (inactive) |
| Cn1nc(C(C)(C)C)cc1C(=O)NCc1ccc(N2CCCC2=O)cc1 | > 26 µM (inactive) |
| Nc1c(C(=O)Nc2ccc(S(=O)(=O)N3CCCC3)cc2)sc2nc3ccc(OC(F)(F)F)cc3cc12 | > 26 µM (inactive) |
| CC(=O)/C=C1\N(C)c2ccc(C)cc2C1(C)C | > 26 µM (inactive) |
| COC(=O)C1=C(c2ccc(OCc3ccccc3)cc2)C[C@@H]2CC[C@H]1N2C(=O)NC1CCN(Cc2ccccc2)CC1 | > 26 µM (inactive) |
| COc1ccc(C(NC(C)=O)c2cc(Cl)c3cccnc3c2O)cc1 (centres undefined) | > 26 µM (inactive) |
| CC(Oc1ccc(Br)cc1)c1nc2c3ccccc3nc(=S)n2[nH]1 (centres undefined) | > 26 µM (inactive) |
| Nc1nc(-c2ccccn2)nc(N)c1Cc1c(F)cccc1Cl | > 26 µM (inactive) |
| Cc1ccc(Nc2c(-c3ccccn3)nc3cc(C)ccn23)cc1 | > 26 µM (inactive) |
| O=[N+]([O-])c1cccc2c(N3CCCC3)ccnc12 | > 26 µM (inactive) |
| CCCCCCc1cc2cc(-c3nnc(-c4ccccc4O)o3)c(=O)oc2cc1O | > 26 µM (inactive) |
| CCc1ccc(NC(=O)CSc2ccc(-c3ccccn3)nn2)cc1 | > 26 µM (inactive) |
| O=C(N/N=C/c1cc(Br)c(Br)s1)c1ccncc1 | > 26 µM (inactive) |
| N#CC(C#N)=C(Nc1ccc(F)cc1)SCc1cccc(F)c1 | > 26 µM (inactive) |
| Cc1cc(N/N=C/c2cccc(Cl)c2)nc(-n2nc(C)cc2C)n1 | > 26 µM (inactive) |
